The text below walks through data of patent publication US11273144B2, “Compounds and compositions for the treatment of muscular disorders and bone disorders” (Epirium Bio Inc., priority 2012, dated 2022).

Values joined by “and” are separate entries in the source; they are usually repeats but may differ in a detail not shown here. Equal values may be shown once.

The nature of series [1]: Effect on body growth of rats on dexamethasone with or without epicatechin. Type of series: in vivo, SD rats. The settings on record: for Femur Length / Tibia Length: 37th day; for WEIGHT Avg / LENGTH Avg: group average; for WEIGHT Ind: individual rat. How it is done: SD rats of the body weight 50-60 g and age 3-4 weeks were divided into 4 groups. […] All dosing were by subcutaneous (SC) mode of administration. Dosing of animals was continued for 36 days. Body weight was measured every alternate day, overall length was measured weekly. Animals were photographed periodically to further support data. Feed intake, general health and movement were assessed routinely. On 37th day animals were sacrificed and femur and tibia length were measured using Vernier Calipers. Blood was collected and stored.

The subject of series [2] is mouse myoblast cell line, C2C12. The series is described as follows: Mouse myoblast assay (C2C12, Western blot). Type of series: cell-based. As to conditions: C2C12, enantiomers 10 nM to 1000 nM, within 24 hr. How it is done:
Cells or skeletal muscle tissue samples were homogenized in 50 ul lysis buffer (1% triton X-100, 20 mmol/L Tris, 140 mmol/L NaCl, 2 mmol/L EDTA, and 0.1% SDS) with protease and phosphatase inhibitor cocktails supplemented with 1 mmol/L PMSF, 2 mmol/L Na3VO4 and 1 mmol/L NaP. Homogenates were passed through an insulin syringe five times, sonicated for 30 min at 4DC and centrifuged (12,000×g) for 10 min. The total protein content was measured in the supernatant. A total of 40)Ig of protein was loaded onto a 5% or 10% SDS-PAGE, electrotransferred, incubated for 1 h in blocking solution (5% nonfat dry milk in TBS plus 0.1% Tween 20 [TBS-T]), followed by either a 3-h incubation at room temperature or overnight incubation at 4DC with primary antibodies. Primary antibodies were typically diluted 1:1000 or 1:2000 in TBS-T plus 5% bovine serum albumin. Membranes were washed (3× for 5 min) in TBS-T and incubated 1 h at room temperature in the presence of HRP-conjugated secondary antibodies diluted 1:10,000 in blocking solution. Membranes were again washed 3 times in TBS-T, and the immunoblots were developed using an enhanced chemiluminescence detection kit. The band intensities were digitally quantified. All primary antibodies are commercially available. Epicatechin induces follistatin expression, suppresses myostatin expression and accelerates the differentiation of cultured mouse myoblasts into myotubes. […] The mouse myoblast cell line, C2C12, was grown to semi-confluence in 6-well tissue culture plates and then exposed to epicatechin (100 nM) for three days using literature-standardized differentiation inducing media: DMEM supplemented with 2% horse serum. Proteins were extracted, separated by conventional gel electrophoresis and stained as Western blots by reacting with commercially available antibodies specific for markers of muscle cell growth and differentiation. In experiments examining the comparative effects of (−) and (+) epicatechin enantiomers on muscle cells, the cells were grown to semi-confluence in 6 well plates, placed into literature-standardized differentiation medium containing horse serum, and then stimulated for 24 hours with (−) or (+) epicatechin enantiomers, at concentrations ranging from 10 nM to 1000 nM. The cells were then harvested as above, and Western blots were prepared to determine relative expression of PGCla and follistatin, using commercially available, specific, primary antibodies.
On the technique in general: Immunoblotting shows a protein as a band on a membrane.

[3] abbreviates: epicatechin 3 MPK s/c followed by dexamethasone.
Setting [4] is: epicatechin 10 MPK s/c followed by dexamethasone.

For the molecule `C[C@@H]1C[C@H]2[C@@H]3CCC4=CC(=O)C=C[C@]4(C)[C@@]3(F)[C@@H](O)C[C@]2(C)[C@@]1(O)C(=O)CO` [DEX, Dexamethasone], the “Femur Length” value in series [1] (dexamethasone s/c alone) worked out at 22.68 mm. For the same molecule, the “Tibia Length” value in series [1] (dexamethasone s/c alone) is recorded as 28.67 mm. In addition, the “WEIGHT Avg” value in series [1] (Day 1, dexamethasone alone SC) worked out at 59.3 g; in series [1] (Day 11, dexamethasone alone SC) it was 89.1 g; in series [1] (Day 23, dexamethasone alone SC) it was 85.7 g; in series [1] (Day 35, dexamethasone alone SC), 96.1 g. Moreover, the “WEIGHT Ind” value in series [1] (Day 1, dexamethasone alone SC) was 55.4 g and 57.7 g and 64.8 g; in series [1] (Day 11, dexamethasone alone SC) it was 91.1 g and 84.3 g and 91.9 g; in series [1] (Day 23, dexamethasone alone SC), 88.0 g and 80.0 g and 89.0 g; in series [1] (Day 35, dexamethasone alone SC) it was 103.9 g and 93.1 g and 91.5 g. The “LENGTH Avg” value in series [1] (Day 13, dexamethasone alone SC) is 15.3 cm; in series [1] (Day 23, dexamethasone alone SC), 14.2 cm; in series [1] (Day 35, dexamethasone alone SC), 14.2 cm.
Take `Oc1cc(O)c2c(c1)O[C@H](c1ccc(O)c(O)c1)[C@H](O)C2` [(−) epicatechin, (−)−epicatechin]: in series [2], the “expression of PGC1u” value is “stimulated” and the expression of follistatin result was “stimulated”.
In the case of `Oc1cc(O)c2c(c1)O[C@H](c1ccc(O)c(O)c1)[C@H](O)C2` [epicatechin], the figures for the “Femur Length” value in series [1] (setting [3]) and in series [1] (setting [4]) were 29.57 mm and 31.30 mm, respectively. Also, the “Tibia Length” value in series [1] (setting [3]) stood at 34.91 mm; in series [1] (setting [4]), 35.37 mm.
Take `Oc1cc(O)c2c(c1)O[C@@H](c1ccc(O)c(O)c1)[C@@H](O)C2` [(+) epicatechin, (+)−epicatechin]: in series [2], the “expression of PGC1u” value is “stimulated” and the expression of follistatin entry was “stimulated”.
